Experiments:
[1] = target: T1, 5-HT2C edited (accession number AAF35842.1) (Homo sapiens, UniProt P28335, I156V/I160V/N158S); experiment: biochemical; type: binding
Target sequence in this assay (P28335 whole entry I156V/N158S/I160V, looked up): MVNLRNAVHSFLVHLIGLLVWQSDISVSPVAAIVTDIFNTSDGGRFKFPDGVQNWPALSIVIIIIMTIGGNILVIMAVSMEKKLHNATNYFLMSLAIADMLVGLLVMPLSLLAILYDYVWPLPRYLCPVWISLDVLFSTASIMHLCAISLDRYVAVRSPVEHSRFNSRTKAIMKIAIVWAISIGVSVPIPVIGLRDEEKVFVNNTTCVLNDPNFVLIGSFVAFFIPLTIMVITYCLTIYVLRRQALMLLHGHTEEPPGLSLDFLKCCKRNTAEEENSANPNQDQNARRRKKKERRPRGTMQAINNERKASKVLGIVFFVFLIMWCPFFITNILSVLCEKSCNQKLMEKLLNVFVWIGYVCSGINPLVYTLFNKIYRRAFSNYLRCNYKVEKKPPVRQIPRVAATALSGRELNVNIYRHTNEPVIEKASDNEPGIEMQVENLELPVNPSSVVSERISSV

[2] = target: T1, 5-HT2C edited (accession number AAF35842.1); experiment: cell-based
Target sequence in this assay (P28335 33-458 I156V/N158S/I160V limits assumed): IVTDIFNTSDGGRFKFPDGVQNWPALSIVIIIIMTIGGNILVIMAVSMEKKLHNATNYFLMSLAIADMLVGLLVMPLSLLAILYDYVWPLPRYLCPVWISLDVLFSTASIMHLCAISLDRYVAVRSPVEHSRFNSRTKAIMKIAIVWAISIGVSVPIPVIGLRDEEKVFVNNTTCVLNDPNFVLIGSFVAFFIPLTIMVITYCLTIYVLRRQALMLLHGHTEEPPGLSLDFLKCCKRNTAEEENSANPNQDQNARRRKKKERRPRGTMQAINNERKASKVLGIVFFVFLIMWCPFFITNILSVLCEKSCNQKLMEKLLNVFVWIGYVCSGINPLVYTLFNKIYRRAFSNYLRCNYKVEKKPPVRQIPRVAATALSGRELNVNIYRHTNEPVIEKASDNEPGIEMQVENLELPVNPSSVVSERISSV

SMILES: CN(C)CC(=O)n1ccc2cc(F)ccc21 [Example 43, 2-(dimethylamino)-1-(5-fluoro-1H-indol-1-yl)ethan-1-one]
- IC50 [1]: > 10 µM
- EC50 [2]: > 10 µM

SMILES: C[C@H](C(=O)n1ccc2ccccc21)N(C)C [Example 46, (R)-2-(dimethylamino)-1-(1H-indol-1-yl)propan-1-one]
- IC50 [1]: 1 to 10 µM
- EC50 [2]: > 10 µM

SMILES: C[C@@H](N)Cn1ccc2cncnc21 [Example 26, (R)-1-(7H-pyrrolo[2,3-d]pyrimidin-7-yl)propan-2-amine]
- IC50 [1]: 1 to 10 µM
- EC50 [2]: 1 to 10 µM

SMILES: COc1ncc2c(ccn2CC(C)(C)N(C)C)n1 [Example 23, 1-(2-methoxy-5H-pyrrolo[3,2-d]pyrimidin-5-yl)-N,N,2-trimethylpropan-2-amine]
- IC50 [1]: > 10 µM
- EC50 [2]: > 10 µM

SMILES: CN(C)CCn1ccc2cnccc21 [Example 7, N,N-dimethyl-2-(1H-pyrrolo[3,2-c]pyridin-1-yl)ethan-1-amine]
- IC50 [1]: > 10 µM
- EC50 [2]: > 10 µM

SMILES: COc1ccc2c(c1)CCN2CCN(C)C [Example 8, 2-(5-methoxyindolin-1-yl)-N,N-dimethylethan-1-amine]
- IC50 [1]: 1 to 10 µM
- EC50 [2]: > 10 µM

SMILES: CN(C)C(C)(C)Cn1ccc2ccc(F)cc21 [Example 19, 1-(6-fluoro-1H-indol-1-yl)-N,N,2-trimethylpropan-2-amine]
- IC50 [1]: > 10 µM
- EC50 [2]: > 10 µM

SMILES: COc1cc2ccn(C[C@@H](C)N)c2cn1 [Example 31, (R)-1-(5-methoxy-1H-pyrrolo[2,3-c]pyridin-1-yl)propan-2-amine]
- IC50 [1]: 0.101 to 1 µM
- EC50 [2]: 0.101 to 1 µM

SMILES: COc1cc2ccn(CCN(C)C)c2cn1 [Example 4, 2-(5-methoxy-1H-pyrrolo[2,3-c]pyridin-1-yl)-N,N-dimethylethan-1-amine]
- IC50 [1]: 0.101 to 1 µM
- EC50 [2]: > 10 µM

SMILES: COc1ccc2c(ccn2[C@H]2C[C@H](N(C)C)C2)c1 [Example 25, (1r,3r)-3-(5-methoxy-1H-indol-1-yl)-N,N-dimethylcyclobutan-1-amine]
- IC50 [1]: 1 to 10 µM
- EC50 [2]: > 10 µM

SMILES: COc1ccc2c(ccn2CC(C)(C)N(C)C)n1 [Example 21, 1-(5-methoxy-1H-pyrrolo[3,2-b]pyridin-1-yl)-N,N,2-trimethylpropan-2-amine]
- IC50 [1]: > 10 µM
- EC50 [2]: > 10 µM

SMILES: COc1ccc2c(ccn2C(=O)CN(C)C)c1 [Example 45, 2-(dimethylamino)-1-(5-methoxy-1H-indol-1-yl)ethan-1-one]
- IC50 [1]: > 10 µM
- EC50 [2]: > 10 µM

SMILES: CN(C)CCn1ccc2cncnc21 [Example 6, N,N-dimethyl-2-(7H-pyrrolo[2,3-d]pyrimidin-7-yl)ethan-1-amine]
- IC50 [1]: 1 to 10 µM
- EC50 [2]: > 10 µM

SMILES: C[C@H](C(=O)n1ccc2cc(F)ccc21)N(C)C [Example 48, (R)-2-(dimethylamino)-1-(5-fluoro-1H-indol-1-yl)propan-1-one]
- IC50 [1]: 1 to 10 µM
- EC50 [2]: > 10 µM

SMILES: COc1cc2ccn(C[C@@H](C)N(C)C)c2cn1 [Example 33, (R)-1-(5-methoxy-1H-pyrrolo[2,3-c]pyridin-1-yl)-N,N-dimethylpropan-2-amine]
- IC50 [1]: > 10 µM
- EC50 [2]: > 10 µM

SMILES: COc1ccc2c(ccn2CC(C)(C)N(C)C)c1F [Example 15, 1-(4-fluoro-5-methoxy-1H-indol-1-yl)-N,N,2-trimethylpropan-2-amine]
- IC50 [1]: > 10 µM
- EC50 [2]: > 10 µM

SMILES: Cc1cn(CC(C)(C)N)c2ccc(F)cc12 [Example 40, 1-(5-fluoro-3-methyl-1H-indol-1-yl)-2-methylpropan-2-amine]
- IC50 [1]: 0.101 to 1 µM
- EC50 [2]: 0.101 to 1 µM

SMILES: COc1ccc2c(c1)CCN(CCN(C)C)C2 [Example 11, 2-(6-methoxy-3,4-dihydroisoguinolin-2(1H)-yl)-N,N-dimethylethan-1-amine]
- IC50 [1]: 0.101 to 1 µM
- EC50 [2]: > 10 µM

SMILES: COc1ccc2c(ccn2CCN(C)C)n1 [Example 3, 2-(5-methoxy-1H-pyrrolo[3,2-b]pyridin-1-yl)-N,N-dimethylethan-1-amine]
- IC50 [1]: 0.101 to 1 µM
- EC50 [2]: > 10 µM

SMILES: CN[C@H](C)Cn1ccc2cnccc21 [Example 38, (R)—N-methyl-1-(1H-pyrrolo[3,2-c]pyridin-1-yl)propan-2-amine]
- IC50 [1]: > 10 µM
- EC50 [2]: > 10 µM

SMILES: COc1cnc2c(ccn2C[C@@H](C)N)c1 [Example 34, (R)-1-(5-methoxy-1H-pyrrolo[2,3-b]pyridin-1-yl)propan-2-amine]
- IC50 [1]: 1 to 10 µM
- EC50 [2]: 1 to 10 µM

SMILES: COc1ccc2c(ccn2CC(C)(C)N)c1 [Example 42, 1-(5-methoxy-1H-indol-1-yl)-2-methylpropan-2-amine]
- IC50 [1]: 1 to 10 µM
- EC50 [2]: 1 to 10 µM

SMILES: C[C@H](Cn1ccc2cncnc21)N(C)C [Example 27, (R)—N,N-dimethyl-1-(7H-pyrrolo[2,3-d]pyrimidin-7-yl)propan-2-amine]
- IC50 [1]: > 10 µM
- EC50 [2]: > 10 µM

SMILES: COc1ccc2c(ccn2C(=O)[C@@H](C)N(C)C)c1 [Example 47, (R)-2-(dimethylamino)-1-(5-methoxy-1H-indol-1-yl)propan-1-one]
- IC50 [1]: > 10 µM
- EC50 [2]: > 10 µM

SMILES: C[C@H](Cn1ccc2cnccc21)N(C)C [Example 39, (R)—N,N-dimethyl-1-(1H-pyrrolo[3,2-c]pyridin-1-yl)propan-2-amine]
- IC50 [1]: > 10 µM
- EC50 [2]: > 10 µM

SMILES: COc1cc(F)c2c(ccn2CC(C)(C)N(C)C)c1 [Example 17, 1-(7-fluoro-5-methoxy-1H-indol-1-yl)-N,N,2-trimethylpropan-2-amine]
- IC50 [1]: > 10 µM
- EC50 [2]: > 10 µM

SMILES: COc1ccc2c(ccn2C[C@@H](C)N(C)C)n1 [Example 30, (R)-1-(5-methoxy-1H-pyrrolo[3,2-b]pyridin-1-yl)-N,N-dimethylpropan-2-amine]
- IC50 [1]: > 10 µM
- EC50 [2]: > 10 µM

SMILES: CN(C)C(C)(C)Cn1ccc2cc(F)ccc21 [Example 14, 1-(5-fluoro-1H-indol-1-yl)-N,N,2-trimethylpropan-2-amine]
- IC50 [1]: > 10 µM
- EC50 [2]: > 10 µM

SMILES: CN(C)C(C)(C)Cn1ccc2c(F)cccc21 [Example 18, 1-(4-fluoro-1H-indol-1-yl)-N,N,2-trimethylpropan-2-amine]
- IC50 [1]: > 10 µM
- EC50 [2]: > 10 µM

SMILES: COc1ccc2c(c1)CN(CCN(C)C)C2 [Example 10, 2-(5-methoxyisoindolin-2-yl)-N,N-dimethylethan-1-amine]
- IC50 [1]: 1 to 10 µM
- EC50 [2]: 1 to 10 µM

SMILES: CN(C)C(C)(C)Cn1ccc2cccc(F)c21 [Example 20, 1-(7-fluoro-1H-indol-1-yl)-N,N,2-trimethylpropan-2-amine]
- IC50 [1]: > 10 µM
- EC50 [2]: > 10 µM

SMILES: CN[C@H](C)Cn1ccc2nc(OC)ccc21 [Example 29, (R)-1-(5-methoxy-1H-pyrrolo[3,2-b]pyridin-1-yl)-N-methylpropan-2-amine]
- IC50 [1]: > 10 µM
- EC50 [2]: > 10 µM

SMILES: COc1cc2ccn(CC(C)(C)N(C)C)c2cc1F [Example 16, 1-(6-fluoro-5-methoxy-1H-indol-1-yl)-N,N,2-trimethylpropan-2-amine]
- IC50 [1]: > 10 µM
- EC50 [2]: > 10 µM

SMILES: COc1cc2ccn(CC(C)(C)N(C)C)c2cn1 [Example 22, 1-(5-methoxy-1H-pyrrolo[2,3-c]pyridin-1-yl)-N,N,2-trimethylpropan-2-amine]
- IC50 [1]: > 10 µM
- EC50 [2]: > 10 µM

SMILES: COc1ccc2c(ccn2CC(C)(C)N(C)C)c1 [Example 1, 1-(5-methoxy-1H-indol-1-yl)-N,N,2-trimethylpropan-2-amine]
- IC50 [1]: 1 to 10 µM
- EC50 [2]: > 10 µM

SMILES: COc1ccc2c(c1)CCCN2CCN(C)C [Example 9, 2-(6-methoxy-3,4-dihydroquinolin-1(2H)-yl)-N,N-dimethylethan-1-amine]
- IC50 [1]: 0.101 to 1 µM
- EC50 [2]: > 10 µM

SMILES: COc1ccc2c(ccn2CC2(N(C)C)CC2)c1 [Example 2, 1-((5-methoxy-1H-indol-1-yl)methyl)-N,N-dimethylcyclopropan-1-amine]
- IC50 [1]: 1 to 10 µM
- EC50 [2]: > 10 µM

SMILES: CC(C)(N)Cn1ccc2c(F)c(F)ccc21 [Example 41, 1-(4,5-difluoro-1H-indol-1-yl)-2-methylpropan-2-amine]
- IC50 [1]: 0.101 to 1 µM
- EC50 [2]: 0.101 to 1 µM

SMILES: COc1ccc2c(ccn2[C@H]2C[C@@H](N(C)C)C2)c1 [Example 24, (1s,3s)-3-(5-methoxy-1H-indol-1-yl)-N,N-dimethylcyclobutan-1-amine]
- IC50 [1]: 1 to 10 µM
- EC50 [2]: > 10 µM

SMILES: COc1cnc2c(ccn2CCN(C)C)c1 [Example 5, 2-(5-methoxy-1H-pyrrolo[2,3-b]pyridin-1-yl)-N,N-dimethylethan-1-amine]
- IC50 [1]: 0.101 to 1 µM
- EC50 [2]: > 10 µM

SMILES: CN(C)CC(=O)n1ccc2ccccc21 [Example 44, 2-(dimethylamino)-1-(1H-indol-1-yl)ethan-1-one]
- IC50 [1]: > 10 µM
- EC50 [2]: > 10 µM

SMILES: Cc1cn(CC(C)(C)N(C)C)c2ccc(F)cc12 [Example 13, 1-(5-fluoro-3-methyl-1H-indol-1-yl)-N,N,2-trimethylpropan-2-amine]
- IC50 [1]: 1 to 10 µM
- EC50 [2]: 1 to 10 µM

SMILES: CN(C)C(C)(C)Cn1ccc2c(F)c(F)ccc21 [Example 12, 1-(4,5-difluoro-1H-indol-1-yl)-N,N,2-trimethylpropan-2-amine]
- IC50 [1]: > 10 µM
- EC50 [2]: > 10 µM

SMILES: COc1cnc2c(ccn2C[C@@H](C)N(C)C)c1 [Example 36, (R)-1-(5-methoxy-1H-pyrrolo[2,3-b]pyridin-1-yl)-N,N-dimethylpropan-2-amine]
- IC50 [1]: 1 to 10 µM
- EC50 [2]: 1 to 10 µM

SMILES: C[C@@H](N)Cn1ccc2cnccc21 [Example 37, (R)-1-(1H-pyrrolo[3,2-c]pyridin-1-yl)propan-2-amine]
- IC50 [1]: > 10 µM
- EC50 [2]: 1 to 10 µM

SMILES: CN[C@H](C)Cn1ccc2cc(OC)cnc21 [Example 35, (R)-1-(5-methoxy-1H-pyrrolo[2,3-b]pyridin-1-yl)-N-methylpropan-2-amine]
- IC50 [1]: > 10 µM
- EC50 [2]: 1 to 10 µM

SMILES: CN[C@H](C)Cn1ccc2cc(OC)ncc21 [Example 32, (R)-1-(5-methoxy-1H-pyrrolo[2,3-c]pyridin-1-yl)-N-methylpropan-2-amine]
- IC50 [1]: 1 to 10 µM
- EC50 [2]: 1 to 10 µM

SMILES: COc1ccc2c(ccn2C[C@@H](C)N)n1 [Example 28, (R)-1-(5-methoxy-1H-pyrrolo[3,2-b]pyridin-1-yl)propan-2-amine]
- IC50 [1]: > 10 µM
- EC50 [2]: 1 to 10 µM
